From patent US20190055563A1, “POLYMERASE Q AS A TARGET IN HR-DEFICIENT CANCERS” (DANA-FARBER CANCER INSTITUTE, INC., priority 2015, published 2019)

How the values were obtained:
[1] = test system: A2780-shFANCD2 cells; assay: Clonogenic survival of HR-deficient cells with POLQ depletion; type: cell-based, human; details: A2780-shFANCD2 with shRNA targeting POLQ
Experimental: (§1) For assessing cellular cytotoxicity, cells were seeded into 96-well plates at a density of 1000 cells/well. Cytotoxic drugs were serially diluted in media and added to the wells. At 72 hours, CellTiter-Glo reagent (Promega) was added to the wells and the plates were scanned using a luminescence microplate reader. Survival at each drug concentration was plotted as a percentage of the survival in drug-free media. Each data point on the graph represents the average of three measurements, and the error bars represent the standard deviation. For clonogenic survival, 1000 cells/well were seeded into six-well plates and treated with cytotoxic drugs the next day. For MMC and PARPi, cells were treated continuously with indicated drug concentrations. For CDDP, cells were treated for 24 hours and cultured for 14 days in drug-free media. Colony formation was scored 14 days after treatment using 0.5% (w/v) crystal violet in methanol. Survival curves were expressed as a percentage ±s.e.m. over three independent experiments of colonies formed relative to the DMSO-treated control.

[2] = test system: A2780 cells; assay: 3-day survival assay with POLQ inhibition; type: cell-based, human; details: 3 days of continuous exposure to ATM inhibitor
Experimental: as §1

[3] = test system: 293T cells; assay: 3-day survival assay with POLQ siRNA; type: cell-based, human
Experimental: as §1

[4] = target: recombinant human GST-RAD51 (UniProt Q06609)
[5] = target: T1, Flag-tagged POLQ-1633-Cter (human, UniProt O75417 1633-2590); assay: anti-Flag co-immunoprecipitation from HeLa cells, immunoblot
T1 construct: range 1633-Cter; Stably expressed in HeLa cells; not shown: Flag tag
T1 sequence (looked up): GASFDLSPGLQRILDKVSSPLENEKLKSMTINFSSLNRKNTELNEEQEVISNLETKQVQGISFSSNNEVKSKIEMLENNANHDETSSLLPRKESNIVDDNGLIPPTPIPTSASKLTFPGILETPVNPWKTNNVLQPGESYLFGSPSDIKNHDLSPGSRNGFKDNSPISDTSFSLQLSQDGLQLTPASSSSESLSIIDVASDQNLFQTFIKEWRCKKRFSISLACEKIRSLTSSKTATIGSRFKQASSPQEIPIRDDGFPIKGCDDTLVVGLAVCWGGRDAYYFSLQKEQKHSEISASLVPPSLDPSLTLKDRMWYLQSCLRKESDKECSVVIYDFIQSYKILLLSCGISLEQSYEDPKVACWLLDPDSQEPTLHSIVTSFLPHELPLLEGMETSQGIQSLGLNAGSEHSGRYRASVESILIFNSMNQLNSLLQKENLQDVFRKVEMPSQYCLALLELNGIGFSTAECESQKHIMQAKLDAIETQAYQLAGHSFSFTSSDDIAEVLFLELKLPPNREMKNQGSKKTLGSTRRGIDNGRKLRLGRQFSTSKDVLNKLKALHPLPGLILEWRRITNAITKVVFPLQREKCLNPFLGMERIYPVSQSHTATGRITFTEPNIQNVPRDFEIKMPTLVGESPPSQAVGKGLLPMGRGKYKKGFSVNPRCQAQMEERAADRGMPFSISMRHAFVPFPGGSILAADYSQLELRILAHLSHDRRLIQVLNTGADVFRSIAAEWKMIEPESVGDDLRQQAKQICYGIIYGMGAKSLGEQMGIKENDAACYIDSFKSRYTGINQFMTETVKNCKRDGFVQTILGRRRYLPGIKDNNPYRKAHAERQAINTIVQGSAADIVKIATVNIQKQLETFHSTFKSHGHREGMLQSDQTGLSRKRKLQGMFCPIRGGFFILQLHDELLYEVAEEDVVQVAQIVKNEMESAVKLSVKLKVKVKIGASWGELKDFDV

With N.N.[Cl][Pt][Cl] [CDDP, cis-diamminedichloroplatinum(II)] the “survival of HR-deficient cells exposed to drug, effect of POLQ depletion” value [1] was “reduced the survival”.

O=c1cc(-c2cccc3c2Sc2ccccc2S3)oc(N2CCOCC2)c1 [Ku55933] was tested, and the “survival of A2780 cells, effect of POLQ inhibition” value [2] was “reduces the survival”.

In the case of CO[C@@]12[C@H](COC(N)=O)C3=C(C(=O)C(C)=C(N)C3=O)N1C[C@@H]1N[C@@H]12 [MMC, Mitomycin C], the “survival of HR-deficient cells exposed to drug, effect of POLQ depletion” value [1] is reported as “reduced the survival” and the “cellular sensitivity to drug after depletion of POLQ” value [3] is reported as “hypersensitivity”.

With “purified recombinant POLQ fragment ΔPol2 (amino acids 1 to 1000), wild-type” the RAD51-ssDNA nucleofilament assembly [4] was “RAD51-ssDNA assembly was reduced by wild-type ΔPol2”.

B1: endogenous RAD51 (other, UniProt Q06609 2-339, looked up)
chain: AMQMQLEANADTSVEEESFGPQPISRLEQCGINANDVKKLEEAGFHTVEAVAYAPKKELINIKGISEAKADKILAEAAKLVPMGFTTATEFHQRRSEIIQITTGSKELDKLLQGGIETGSITEMFGEFRTGKTQICHTLAVTCQLPIDRGGGEGKAMYIDTEGTFRPERLLAVAERYGLSGSDVLDNVAYARAFNTDHQTQLLYQASAMMVESRYALLIVDSATALYRTDYSGRGELSARQMHLARFLRMLLRLADEFGVAVVITNQVVAQVDGAAMFAADPKKPIGGNIIAHASTTRLYLRKGRGETRICKIYDSPCLPEAEAMFAINADGVGDAKD
notes: Endogenous protein in cell lysates
B1: no binding [5].
